In PMC5148701 (Journal of medicinal chemistry, 2016):
Values joined by “and” are separate entries in the source; they are usually repeats but may differ in a detail not shown here. Equal entries are not always repeated. “Also recorded” adds a separate entry of the source. Where two headings read alike, the source gives them in different places.

Key:
hD2L receptors = hD2L receptors (Homo sapiens, UniProt P14416); test: D2R Gi/o-mediated cAMP inhibition assay; type: cell-based; settings: for Emax: HEK-293T; for cAMP Emax (%): HEK293T cells, GloSensor-22F
D2L receptors = D2L receptors (Homo sapiens, UniProt P14416); test: D2R β-arrestin-2 recruitment Tango assay; type: cell-based; settings: for Emax: HTLA, read-out: β-arrestin Emax (%); for EC50: β-arrestin EC50 (nM)
mouse D2Long = mouse D2Long (Mus musculus, UniProt P61168); test: BRET β-arrestin-2 recruitment assay with GRK2 co-expression; type: cell-based; settings: for β-arrestin-2 recruitment agonist activity in BRET assay: up to 1 µM, GRK2 co-expressed
human D2Rlong [1] = molecular target: T1, human D2Rlong (Homo sapiens, UniProt P14416); test: DiscoverX PathHunter D2R β-arrestin-2 recruitment assay; type: cell-based; settings: D2R-expressing CHO cells; up to 10 µM; n=1, performed in duplicate
human D2Rlong [2] = molecular target: T1, human D2Rlong; test: cell-based; settings: for Gαi1-Gγ2 dissociation BRET partial agonist activity relative to quinpirole: HEK293T cells
D2R = D2R (Homo sapiens, UniProt P14416); test: Radioligand binding, D2R
D3R = D3R (Homo sapiens, UniProt P35462); test: Radioligand binding, D3R
D4R = molecular target: T2, D4R (Homo sapiens, UniProt P21917); test: Radioligand binding, D4R
T2 sequence (P21917 1-419): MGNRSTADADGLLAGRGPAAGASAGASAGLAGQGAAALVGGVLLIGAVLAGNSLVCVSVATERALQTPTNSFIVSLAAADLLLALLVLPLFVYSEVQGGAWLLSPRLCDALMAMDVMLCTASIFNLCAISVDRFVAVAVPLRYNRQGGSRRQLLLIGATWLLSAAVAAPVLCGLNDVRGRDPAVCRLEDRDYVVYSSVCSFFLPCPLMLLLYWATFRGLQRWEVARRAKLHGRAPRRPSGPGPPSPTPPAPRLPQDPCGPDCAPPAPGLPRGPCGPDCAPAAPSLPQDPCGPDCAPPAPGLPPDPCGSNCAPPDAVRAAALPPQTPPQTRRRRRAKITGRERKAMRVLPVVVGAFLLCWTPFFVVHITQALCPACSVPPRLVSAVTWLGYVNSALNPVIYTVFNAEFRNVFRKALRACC

5-HT1A = molecular target: T3, 5-HT1A (Homo sapiens, UniProt P08908); test: Radioligand binding, 5-HT1A
T3 sequence (P08908 1-422): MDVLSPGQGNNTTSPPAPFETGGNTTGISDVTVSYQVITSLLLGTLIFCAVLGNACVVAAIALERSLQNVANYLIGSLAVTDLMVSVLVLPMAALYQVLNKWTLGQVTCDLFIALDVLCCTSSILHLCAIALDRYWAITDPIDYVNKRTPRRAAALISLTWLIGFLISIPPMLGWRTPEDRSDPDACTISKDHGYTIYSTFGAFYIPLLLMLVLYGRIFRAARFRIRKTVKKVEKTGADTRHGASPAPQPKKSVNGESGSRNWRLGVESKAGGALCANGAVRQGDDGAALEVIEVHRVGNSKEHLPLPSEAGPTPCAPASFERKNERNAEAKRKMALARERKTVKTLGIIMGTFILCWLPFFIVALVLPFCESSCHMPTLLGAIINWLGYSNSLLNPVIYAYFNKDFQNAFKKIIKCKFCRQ

5-HT1B = 5-HT1B (Homo sapiens, UniProt P28222); test: Radioligand binding, 5-HT1B
5-HT1D = 5-HT1D (Homo sapiens, UniProt P28221); test: Radioligand binding, 5-HT1D
5-HT2A = 5-HT2A (Homo sapiens, UniProt P28223); test: Radioligand binding, 5-HT2A
5-HT2B = 5-HT2B (Homo sapiens, UniProt P41595); test: Radioligand binding, 5-HT2B
5-HT7 = 5-HT7 (Homo sapiens, UniProt P34969); test: Radioligand binding, 5-HT7
D1R = D1R (Homo sapiens, UniProt P21728); test: Radioligand binding, D1R
D5R = D5R (Homo sapiens, UniProt P21918); test: Radioligand binding, D5R
5-HT3 = molecular target: T4, 5-HT3 (Homo sapiens, UniProt P46098); test: Radioligand binding, 5-HT3
T4 sequence (P46098 24-478): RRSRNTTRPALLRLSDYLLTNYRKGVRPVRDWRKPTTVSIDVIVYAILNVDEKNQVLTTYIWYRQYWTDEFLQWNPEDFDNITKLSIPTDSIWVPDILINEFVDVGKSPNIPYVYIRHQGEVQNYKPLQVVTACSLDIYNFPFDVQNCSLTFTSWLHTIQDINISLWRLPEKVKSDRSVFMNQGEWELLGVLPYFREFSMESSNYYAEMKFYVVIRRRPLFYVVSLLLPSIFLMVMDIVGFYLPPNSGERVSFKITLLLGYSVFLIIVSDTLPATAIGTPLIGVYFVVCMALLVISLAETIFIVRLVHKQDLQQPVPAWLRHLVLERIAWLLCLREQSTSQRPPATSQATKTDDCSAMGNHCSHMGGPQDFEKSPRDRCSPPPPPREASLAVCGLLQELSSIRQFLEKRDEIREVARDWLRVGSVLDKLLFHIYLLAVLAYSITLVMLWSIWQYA

5-HT5A = 5-HT5A (Homo sapiens, UniProt P47898); test: Radioligand binding, 5-HT5A
5-HT2C = molecular target: T5, 5-HT2C (Homo sapiens, UniProt P28335); test: Radioligand binding, 5-HT2C
T5 sequence (P28335 33-458): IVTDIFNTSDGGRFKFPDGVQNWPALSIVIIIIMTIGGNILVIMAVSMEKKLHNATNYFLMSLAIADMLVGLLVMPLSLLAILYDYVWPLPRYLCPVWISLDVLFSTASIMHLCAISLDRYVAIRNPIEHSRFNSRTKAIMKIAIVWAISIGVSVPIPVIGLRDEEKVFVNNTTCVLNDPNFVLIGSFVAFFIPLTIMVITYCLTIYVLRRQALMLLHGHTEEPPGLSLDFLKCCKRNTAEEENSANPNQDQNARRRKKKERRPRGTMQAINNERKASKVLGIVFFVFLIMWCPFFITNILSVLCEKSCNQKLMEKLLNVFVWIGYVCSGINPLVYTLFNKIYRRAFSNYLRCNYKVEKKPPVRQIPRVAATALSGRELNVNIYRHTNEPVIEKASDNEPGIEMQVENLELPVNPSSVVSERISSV

H2-histamine receptor = H2-histamine receptor (Homo sapiens, UniProt P25021); test: Radioligand binding, H2
5-HT6 = 5-HT6 (Homo sapiens, UniProt P50406); test: Radioligand binding, 5-HT6
[3] = read-out: cAMP Emax (%), HEK293T cells, GloSensor-22F, normalized to maximum cAMP inhibition by quinpirole (100%)
[4] = Binding affinity Ki (nM), 5-HT1A
[5] = Binding affinity Ki (nM), 5-HT2B
[6] = normalized to maximum cAMP inhibition by quinpirole (100%)

Chain of 5-HT1B (P28222 whole entry, species assumed): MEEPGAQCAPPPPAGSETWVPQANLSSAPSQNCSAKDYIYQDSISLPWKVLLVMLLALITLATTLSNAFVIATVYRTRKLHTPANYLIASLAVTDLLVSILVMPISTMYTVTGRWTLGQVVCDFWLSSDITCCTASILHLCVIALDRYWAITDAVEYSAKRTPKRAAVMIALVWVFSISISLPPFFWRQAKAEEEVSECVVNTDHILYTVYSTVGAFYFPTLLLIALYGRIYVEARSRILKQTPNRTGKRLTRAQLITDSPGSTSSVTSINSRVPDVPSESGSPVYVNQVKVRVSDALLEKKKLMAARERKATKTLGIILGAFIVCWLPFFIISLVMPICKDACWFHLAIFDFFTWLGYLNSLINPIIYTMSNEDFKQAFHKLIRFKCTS
Chain of D2L receptors (P14416 whole entry): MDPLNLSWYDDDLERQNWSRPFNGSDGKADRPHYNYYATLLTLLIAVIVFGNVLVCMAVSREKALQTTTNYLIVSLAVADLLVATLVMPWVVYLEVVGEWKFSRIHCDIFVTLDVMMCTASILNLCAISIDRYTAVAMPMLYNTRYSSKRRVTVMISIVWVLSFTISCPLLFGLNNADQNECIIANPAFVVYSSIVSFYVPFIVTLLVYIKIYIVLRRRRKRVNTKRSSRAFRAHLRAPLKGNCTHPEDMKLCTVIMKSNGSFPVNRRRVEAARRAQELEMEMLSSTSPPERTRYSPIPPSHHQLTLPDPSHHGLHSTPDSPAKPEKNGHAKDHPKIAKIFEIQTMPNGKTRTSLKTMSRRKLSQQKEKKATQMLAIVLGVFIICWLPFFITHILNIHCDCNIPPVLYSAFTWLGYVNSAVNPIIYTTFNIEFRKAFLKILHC
Chain of D2R (P14416 whole entry): as above
Chain of hD2L receptors (P14416 whole entry): as above
T1 sequence (P14416 whole entry): as above
Chain of 5-HT2A (P28223 whole entry, species assumed): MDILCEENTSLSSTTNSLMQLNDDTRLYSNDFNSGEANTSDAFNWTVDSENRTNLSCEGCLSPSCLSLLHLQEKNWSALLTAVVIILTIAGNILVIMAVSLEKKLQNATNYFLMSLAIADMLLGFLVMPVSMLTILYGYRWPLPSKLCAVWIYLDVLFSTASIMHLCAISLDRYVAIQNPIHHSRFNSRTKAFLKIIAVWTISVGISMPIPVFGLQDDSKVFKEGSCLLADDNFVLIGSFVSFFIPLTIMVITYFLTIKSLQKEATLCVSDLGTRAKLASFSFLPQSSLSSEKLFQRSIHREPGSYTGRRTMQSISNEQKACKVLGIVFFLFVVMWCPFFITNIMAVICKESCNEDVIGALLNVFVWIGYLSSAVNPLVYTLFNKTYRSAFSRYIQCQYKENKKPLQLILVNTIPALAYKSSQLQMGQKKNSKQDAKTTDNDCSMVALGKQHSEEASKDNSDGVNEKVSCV
Chain of mouse D2Long (P61168 whole entry): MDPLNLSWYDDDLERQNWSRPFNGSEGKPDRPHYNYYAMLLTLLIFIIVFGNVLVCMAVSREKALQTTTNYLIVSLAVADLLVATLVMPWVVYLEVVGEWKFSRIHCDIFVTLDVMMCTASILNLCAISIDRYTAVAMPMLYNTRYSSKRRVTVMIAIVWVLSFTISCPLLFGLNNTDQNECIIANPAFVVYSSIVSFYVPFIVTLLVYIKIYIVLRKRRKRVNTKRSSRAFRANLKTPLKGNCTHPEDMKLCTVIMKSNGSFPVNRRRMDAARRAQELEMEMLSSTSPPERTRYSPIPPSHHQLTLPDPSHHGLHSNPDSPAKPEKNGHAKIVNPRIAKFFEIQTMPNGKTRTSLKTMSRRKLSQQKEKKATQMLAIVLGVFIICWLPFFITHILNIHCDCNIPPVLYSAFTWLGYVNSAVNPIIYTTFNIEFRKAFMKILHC
Chain of 5-HT1D (P28221 whole entry, species assumed): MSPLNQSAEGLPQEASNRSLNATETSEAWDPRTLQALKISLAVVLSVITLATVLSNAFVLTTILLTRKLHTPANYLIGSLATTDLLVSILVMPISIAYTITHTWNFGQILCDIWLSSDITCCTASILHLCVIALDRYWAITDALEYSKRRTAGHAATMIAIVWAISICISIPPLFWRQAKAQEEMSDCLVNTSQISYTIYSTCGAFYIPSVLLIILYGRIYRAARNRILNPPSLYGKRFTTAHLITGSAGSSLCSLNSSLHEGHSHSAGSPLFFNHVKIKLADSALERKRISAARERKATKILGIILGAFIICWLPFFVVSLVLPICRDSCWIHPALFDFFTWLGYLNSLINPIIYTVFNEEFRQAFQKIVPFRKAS
Chain of D3R (P35462 whole entry): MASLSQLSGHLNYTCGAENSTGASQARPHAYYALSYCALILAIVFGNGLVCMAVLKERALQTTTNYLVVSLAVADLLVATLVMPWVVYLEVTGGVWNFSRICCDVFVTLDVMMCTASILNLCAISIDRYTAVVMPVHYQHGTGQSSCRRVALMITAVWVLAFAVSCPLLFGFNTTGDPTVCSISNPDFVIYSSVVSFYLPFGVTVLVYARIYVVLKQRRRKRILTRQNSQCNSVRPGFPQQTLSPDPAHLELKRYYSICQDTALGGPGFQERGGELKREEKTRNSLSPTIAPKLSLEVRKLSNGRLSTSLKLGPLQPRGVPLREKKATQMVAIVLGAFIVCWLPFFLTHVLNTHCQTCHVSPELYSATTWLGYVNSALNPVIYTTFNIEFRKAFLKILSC
Chain of 5-HT2B (P41595 whole entry, species assumed): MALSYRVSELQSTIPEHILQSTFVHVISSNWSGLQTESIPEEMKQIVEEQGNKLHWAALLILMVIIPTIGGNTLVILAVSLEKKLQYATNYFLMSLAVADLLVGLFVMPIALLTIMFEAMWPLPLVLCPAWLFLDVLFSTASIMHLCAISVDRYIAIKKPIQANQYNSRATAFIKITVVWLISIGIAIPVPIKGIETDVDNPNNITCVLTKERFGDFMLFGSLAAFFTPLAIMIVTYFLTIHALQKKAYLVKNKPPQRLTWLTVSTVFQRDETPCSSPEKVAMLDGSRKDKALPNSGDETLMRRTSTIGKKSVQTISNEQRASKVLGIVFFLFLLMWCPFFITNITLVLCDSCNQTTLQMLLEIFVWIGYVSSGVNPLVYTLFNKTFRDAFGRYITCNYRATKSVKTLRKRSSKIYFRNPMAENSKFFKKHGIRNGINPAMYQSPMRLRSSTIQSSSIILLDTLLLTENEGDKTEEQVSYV
Chain of D1R (P21728 whole entry): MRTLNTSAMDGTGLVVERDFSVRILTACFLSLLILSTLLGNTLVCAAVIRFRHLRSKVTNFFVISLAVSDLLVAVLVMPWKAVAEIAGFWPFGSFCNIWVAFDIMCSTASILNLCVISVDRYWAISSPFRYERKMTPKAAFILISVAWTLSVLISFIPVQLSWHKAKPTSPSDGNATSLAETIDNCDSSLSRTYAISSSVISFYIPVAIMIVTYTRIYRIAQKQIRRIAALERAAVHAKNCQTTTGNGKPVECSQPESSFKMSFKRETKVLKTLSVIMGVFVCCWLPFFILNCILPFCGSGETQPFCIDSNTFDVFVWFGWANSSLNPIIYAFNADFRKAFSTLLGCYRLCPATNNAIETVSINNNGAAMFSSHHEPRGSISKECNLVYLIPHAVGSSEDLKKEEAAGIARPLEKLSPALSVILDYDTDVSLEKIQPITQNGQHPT
Chain of 5-HT7 (P34969 whole entry, species assumed): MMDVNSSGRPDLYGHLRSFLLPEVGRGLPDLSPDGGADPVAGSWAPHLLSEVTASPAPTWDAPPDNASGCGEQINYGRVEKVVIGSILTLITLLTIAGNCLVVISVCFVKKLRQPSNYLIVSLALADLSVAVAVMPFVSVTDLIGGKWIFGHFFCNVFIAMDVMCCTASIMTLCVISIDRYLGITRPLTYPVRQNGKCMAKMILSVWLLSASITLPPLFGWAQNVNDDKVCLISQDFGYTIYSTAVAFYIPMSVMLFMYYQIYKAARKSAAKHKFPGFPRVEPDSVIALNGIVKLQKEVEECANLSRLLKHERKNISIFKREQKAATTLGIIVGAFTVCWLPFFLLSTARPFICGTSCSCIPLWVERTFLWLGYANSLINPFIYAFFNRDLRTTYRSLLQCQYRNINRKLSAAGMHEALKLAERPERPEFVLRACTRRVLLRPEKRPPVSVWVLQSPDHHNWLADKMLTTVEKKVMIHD
Chain of D5R (P21918 whole entry): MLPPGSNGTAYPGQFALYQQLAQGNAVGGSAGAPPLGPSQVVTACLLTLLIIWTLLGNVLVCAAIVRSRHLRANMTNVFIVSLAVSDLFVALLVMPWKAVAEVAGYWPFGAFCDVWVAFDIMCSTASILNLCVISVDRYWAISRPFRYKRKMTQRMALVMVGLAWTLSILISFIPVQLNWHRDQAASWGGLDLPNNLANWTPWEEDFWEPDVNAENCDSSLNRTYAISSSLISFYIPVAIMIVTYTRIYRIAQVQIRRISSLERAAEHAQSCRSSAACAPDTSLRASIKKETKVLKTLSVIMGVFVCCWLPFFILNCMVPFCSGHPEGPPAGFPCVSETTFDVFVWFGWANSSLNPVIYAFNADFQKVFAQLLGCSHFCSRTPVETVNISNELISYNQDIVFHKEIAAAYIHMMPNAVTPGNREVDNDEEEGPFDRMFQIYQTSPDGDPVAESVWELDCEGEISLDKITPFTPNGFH
Chain of 5-HT5A (P47898 whole entry, species assumed): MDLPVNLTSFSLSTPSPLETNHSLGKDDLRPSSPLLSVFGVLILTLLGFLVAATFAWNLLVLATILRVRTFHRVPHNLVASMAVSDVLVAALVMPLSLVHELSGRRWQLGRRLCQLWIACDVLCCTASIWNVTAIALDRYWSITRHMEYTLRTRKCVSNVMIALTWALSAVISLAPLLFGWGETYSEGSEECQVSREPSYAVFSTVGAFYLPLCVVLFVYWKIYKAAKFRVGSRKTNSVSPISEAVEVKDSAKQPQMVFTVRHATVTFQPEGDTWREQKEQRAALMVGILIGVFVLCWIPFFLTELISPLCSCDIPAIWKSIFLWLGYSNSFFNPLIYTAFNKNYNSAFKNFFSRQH

| Compound | Emax (hD2L receptors; [3]) [%] | Emax (D2L receptors) [%] | β-arrestin-2 recruitment agonist activity in BRET assay (mouse D2Long) | β-arrestin recruitment activity as measured by DiscoverX (human D2Rlong [1]) | Ki (D2R) [nM] | Ki (D3R) [nM] | Ki (D4R) [nM] | Ki (5-HT1A; [4]) [nM] | Ki (5-HT1B) [nM] | Ki (5-HT1D) [nM] | Ki (5-HT2A) [nM] | Ki (5-HT2B; [5]) [nM] | Ki (5-HT7) [nM] | cAMP Emax (%) (hD2L receptors; [6]) | Ki (D1R) [nM] | Ki (D5R) [nM] | further results |
| --- | --- | --- | --- | --- | --- | --- | --- | --- | --- | --- | --- | --- | --- | --- | --- | --- | --- |
| Cc1nc2cc(OCCCCN3CCN(c4cccc(Cl)c4Cl)CC3)ccc2s1 [Compound 1, 5-(4-(4-(2,3-Dichlorophenyl)piperazin-1-yl)butoxy)-2-methylbenzo[d]thiazole] | 50 | 23 | no activity | lack of β-arrestin-2 recruitment activity; also recorded: no activity | 150 | 13 | 82 | 86 | 1700 | 320 | 120 | 38 | 140 | – | – | – | inhibition of dopamine-stimulated D2R G protein activation as measured by cAMP inhibition (hD2L receptors; antagonist mode, Figure S2): partial inhibition; EC50 (D2L receptors; Tango assay, HTLA cells): 13 nM; IC50 (mouse D2Long): 18 nM; antagonist activity on dopamine-stimulated β-arrestin-2 recruitment (BRET) (mouse D2Long; antagonist mode): full antagonist activity; EC50 (human D2Rlong [2]): 3.6 nM; Gαi1-Gγ2 dissociation BRET partial agonist activity relative to quinpirole (human D2Rlong [2]): 57% |
| CNc1nc2cc(OCCCCN3CCN(c4cccc(Cl)c4Cl)CC3)ccc2s1 [Compound 24, 5-(4-(4-(2,3-Dichlorophenyl)piperazin-1-yl)butoxy)-N methylbenzo[d]thiazol-2-amine] | – | – | not active; also recorded: no β-arrestin recruitment | – | – | – | – | – | – | – | – | – | – | 40 | – | – | β-arrestin Emax (%) (D2L receptors; Tango assay, HTLA cells, normalized to quinpirole (100%)): <20%; Ki (D2R; read-out: Binding affinity Ki (nM), D2R, radioligand binding): 60 nM; Ki (D1R; read-out: Binding affinity Ki (nM), D1R, radioligand binding): 1100 nM; Ki (D3R; read-out: Binding affinity Ki (nM), D3R, radioligand binding): 35 nM; Ki (D4R; read-out: Binding affinity Ki (nM), D4R, radioligand binding): 280 nM; Ki (D5R; read-out: Binding affinity Ki (nM), D5R, radioligand binding): 1500 nM; Ki (5-HT1A; read-out: Binding affinity Ki (nM), 5-HT1A): 55 nM; Ki (5-HT1B; read-out: Binding affinity Ki (nM), 5-HT1B, radioligand binding): 1400 nM; Ki (5-HT1D; read-out: Binding affinity Ki (nM), 5-HT1D, radioligand binding): 390 nM; Ki (5-HT2A; read-out: Binding affinity Ki (nM), 5-HT2A, radioligand binding): 72 nM; Ki (5-HT2B; read-out: Binding affinity Ki (nM), 5-HT2B): 12 nM; Ki (5-HT7; read-out: Binding affinity Ki (nM), 5-HT7, radioligand binding): 100 nM |
| CCc1nc2cc(OCCCCN3CCC(c4cccc(Cl)c4Cl)CC3)ccc2s1 [Compound 46, 5-(4-(4-(2,3-Dichlorophenyl)piperidin-1-yl)butoxy)-2-ethylbenzo[d]thiazole] | 40 to 50 | < 20 | not active; also recorded: no β-arrestin recruitment | – | 170 | 100 | 1800 | 100 | – | 820 | 140 | 71 | – | 43 | 1700 | – | Ki (5-HT3): 1500 nM; Ki (5-HT5A): 1600 nM |
| Cc1ccc2cccc(N3CCN(CCCCOc4ccc5sc(C(C)C)nc5c4)CC3)c2n1 [Compound 49, 2-Isopropyl-5-(4-(4-(2-methylquinolin-8-yl)piperazin-1-yl)butoxy)benzo[d]thiazole] | 30 to 40 | < 20 | not active; also recorded: no β-arrestin recruitment | – | 45 | 64 | 7100 | 14 | 1600 | 94 | 110 | – | 69 | 32 | 2000 | 1500 | Ki (5-HT2C): 140 nM; Ki (5-HT5A): 1400 nM; Ki (H2-histamine receptor): 430 nM |
| CC(C)c1nc2cc(OCCCCN3CCN(c4cccc5c4OCCO5)CC3)ccc2s1 [Compound 53, 5-(4-(4-(2,3-Dihydrobenzo[b][1,4]dioxin-5-yl)piperazin-1-yl)butoxy)-2-isopropylbenzo[d]thiazole] | 30 to 40 | < 20 | not active; also recorded: no β-arrestin recruitment | lack of β-arrestin-2 recruitment activity; also recorded: no activity | 30 | 31 | 77 | 1.4 | 420 | 100 | 29 | – | 31 | – | 2000 | 1100 | EC50 (human D2Rlong [2]): 4.6 nM; Gαi1-Gγ2 dissociation BRET partial agonist activity relative to quinpirole (human D2Rlong [2]): 47%; Ki (5-HT3): 2600 nM |
| CNc1nc2cc(OCCCCN3CCC(c4cccc(Cl)c4Cl)CC3)ccc2s1 [Compound 54, 5-(4-(4-(2,3-Dichlorophenyl)piperidin-1-yl)butoxy)-N-methylbenzo[d]thiazol-2-amine] | 40 to 50 | – | not active; also recorded: no β-arrestin recruitment | – | 99 | 69 | 430 | 66 | 2600 | 410 | 70 | < 20 | – | – | 1100 | 1800 | Ki (5-HT6): 410 nM |
| Oc1c(CN2CCN(c3ccccn3)CC2)cc(Cl)c2cccnc12 [Compound 59, 5-Chloro-7-((4-(pyridin-2-yl)piperazin-1-yl)methyl)quinolin-8-ol, reference compound] | – | 67 | – | lack of β-arrestin-2 recruitment activity; also recorded: no activity | – | – | – | – | – | – | – | – | – | – | – | – | Emax (hD2L receptors; read-out: cAMP Emax (%)): 63%; EC50 (D2L receptors; Tango assay, HTLA cells): 102 nM and 46 nM; Emax (mouse D2Long; HEK-293T, read-out: β-arrestin-2 recruitment BRET Emax (% of quinpirole)): 68% |
